What is called IC50 is the concentration at which inhibition is half-maximal.

One assay addresses KDM6B (JMJD3) (Homo sapiens, UniProt O15054). Briefly: KDM cell-free assay (AlphaScreen, BPS Bioscience). On the technique in general: In Alpha technology, singlet oxygen from a donor bead excites a nearby acceptor bead.
In assay [1] the test system is HP1-mediated heterochromatin gene repression in CiA:Oct4 embryonic stem cells. Briefly: HP1-recruitment assay dose curve (CiA:Oct4, with CIP-rapamycin), flow cytometry. The assay is classed as cell-based, mouse. Particulars: 48 h with CIP-rapamycin recruitment of HP1; up to 10 µM. The text has this:
To elucidate the effect of DFP-based KDM inhibitors on chromatin dynamics, we profiled them in an intracellular assay which measures heterochromatin formation speed. The chromatin in vivo assay (CiA) leverages chemical induced proximity (CIP) to recruit heterochromatin protein 1 (HP1) to a modified Oct4 locus. This reporter system is composed of tandem arrays of Gal4 and zinc finger DNA binding domains in the promoter of one allele of Oct4, where the gene was replaced by a nuclear eGFP reporter. Protein fusions of Gal4-FKBP and FRB-HP1 allow for direct chemical recruitment of HP1 to the CiA:Oct4 reporter locus upon addition of the chemical inducer of proximity (CIP)-rapamycin. After CIP-rapamycin addition, HP1 is recruited to the reporter locus and brings histone methyltransferase enzymes to the chromatin reporter resulting in the repressive H3K9me3 mark being deposited (Fig. 10A). H3K9me3 deposition is the signature mark of heterochromatin and is coupled with gene silencing and loss of GFP expression (Fig. 10B)[33]. Others have shown that H3K4me3 marked nucleosomes impede H3K9 methyltransferase activity. Thus, we postulate that the active H3K4me3 mark must be removed by KDM enzymes as part of the transformation from euchromatin to heterochromatin. Inhibition of KDMs, specifically those targeting H3K4me3, would result in a decrease in H3K9me3 accumulation, which would be measured in our assay as an increase in GFP positive cells.
To determine the effect of DFP-based KDM inhibitors on HP1-mediated gene repression, we treated CiA:Oct4 embryonic stem (ES) cells with doses of representative compounds ranging from 10 µM–250 nM for 48 h with CIP-rapamycin recruitment of HP1 (Fig. 10C). […] The percentage of GFP(+) cells was determined by flow cytometry as indicated in representative histograms (Supplemental Fig. S8).
Day 0, CiA:Oct4 N118/163 cells were grown in ES media and seeded at a density of 10,000 cells per well in 100 μL media (100,000 cells mL^−1) on gelatin coated 96 well plates. Day 1, culture media was aspirated and replaced with 100 µL ES media containing +/− 6 nM rapamycin. 10 µM, 5 µM, 2.5 µM, 1 µM, 500 nM, and 250 nM concentrations of compound or DMSO were added using a TTP Labtech Mosquito HTS liquid handler. Days 2, fresh ES media +/− rapamycin and compound were added as in Day 1. Day 3, cells were washed with PBS and trypsinized using 0.25% trypsin-EDTA. Trypsin was quenched with serum. Cells were resuspended by pipetting in preparation for flow cytometry analysis.
Flow cytometry data was acquired using the Intellicyt iQue Screener and analyzed with FlowJo software.
The CiA:Oct4 recruitment system in mouse embryonic stem cells contains Gal4 and Zinc finger DNA binding arrays and a downstream nuclear eGFP gene in place of a single Oct4 allele as previously described.^30 The CiA:Oct4 N118/N163 cell line containing viral integrations of N118 and N163 plasmids (N118- nLV EF-1α-Gal-FKBPx1-HA-PGK-Blast, N163- nLV EF-1α-HP1α (CS)-Frbx2(Frb+FrbWobb)-V5-PGK-Puro) was used for inhibition of HP1-mediated heterochromatin studies. All plasmids are freely available on addgene.
HP1-Recruitment Assay Dose Curve. Day 0, CiA:Oct4 N118/163 cells were grown in ES media and seeded at a density of 10,000 cells per well in 100 µL media (100,000 cells mL^-1) on gelatin coated 96 well plates. Day 1, culture media was aspirated and replaced with 100 µL ES media containing +/- 6 nM rapamycin. 10 µM, 5 µM, 2.5 µM, 1 µM, 500 nM, and 250 nM concentrations of compound or DMSO were added using a TTP Labtech Mosquito HTS liquid handler. Days 2, fresh ES media +/- rapamycin and compound were added as in Day 1. Day 3, cells were washed with PBS and trypsinized using 0.25% trypsin-EDTA. Trypsin was quenched with serum. Cells were resuspended by pipetting in preparation for flow cytometry analysis.
Flow Cytometry and Analysis.
On the technique in general: Flow cytometry measures light scatter and fluorescence of single cells or particles in a stream.

The next assay has as its target T1, KDM4A (JMJD2A) (Homo sapiens, UniProt O75164).
T1 construct: purchased BPS Bioscience
Briefly: KDM cell-free assay (AlphaScreen, BPS Bioscience). The assay is classed as biochemical. Particulars: recombinant human KDM4A (JMJD2A); max tested 25 μM.

In the next assay the target is KDM4B (JMJD2B) (Homo sapiens, UniProt O94953). The assay is described as follows: KDM cell-free assay (AlphaScreen, BPS Bioscience).
The target in the next assay is KDM4C (JMJD2C) (Homo sapiens, UniProt Q9H3R0). The assay is described as follows: KDM cell-free assay (AlphaScreen, BPS Bioscience).
Another assay deals with KDM4E (JMJD2E) (Homo sapiens, UniProt B2RXH2). Briefly: KDM cell-free assay (AlphaScreen, BPS Bioscience).
Chain of KDM4E (JMJD2E) (B2RXH2 whole entry): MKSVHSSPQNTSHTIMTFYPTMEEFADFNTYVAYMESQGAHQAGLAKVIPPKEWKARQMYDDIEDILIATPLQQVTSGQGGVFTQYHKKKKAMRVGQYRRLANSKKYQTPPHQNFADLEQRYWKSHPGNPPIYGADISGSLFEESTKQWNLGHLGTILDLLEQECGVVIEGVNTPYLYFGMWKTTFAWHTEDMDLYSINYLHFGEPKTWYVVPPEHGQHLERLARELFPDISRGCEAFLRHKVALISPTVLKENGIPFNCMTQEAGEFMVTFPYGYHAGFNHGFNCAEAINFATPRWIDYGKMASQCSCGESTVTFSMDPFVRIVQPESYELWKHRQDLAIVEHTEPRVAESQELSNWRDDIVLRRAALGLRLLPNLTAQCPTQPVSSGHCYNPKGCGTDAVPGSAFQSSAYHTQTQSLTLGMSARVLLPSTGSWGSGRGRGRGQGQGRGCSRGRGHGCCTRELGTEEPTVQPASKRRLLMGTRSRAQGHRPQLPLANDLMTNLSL
In a further assay the target is KDM4D (JMJD2D) (Homo sapiens, UniProt Q6B0I6). Briefly: KDM cell-free assay (AlphaScreen, BPS Bioscience).
Chain of KDM4D (JMJD2D) (Q6B0I6 whole entry): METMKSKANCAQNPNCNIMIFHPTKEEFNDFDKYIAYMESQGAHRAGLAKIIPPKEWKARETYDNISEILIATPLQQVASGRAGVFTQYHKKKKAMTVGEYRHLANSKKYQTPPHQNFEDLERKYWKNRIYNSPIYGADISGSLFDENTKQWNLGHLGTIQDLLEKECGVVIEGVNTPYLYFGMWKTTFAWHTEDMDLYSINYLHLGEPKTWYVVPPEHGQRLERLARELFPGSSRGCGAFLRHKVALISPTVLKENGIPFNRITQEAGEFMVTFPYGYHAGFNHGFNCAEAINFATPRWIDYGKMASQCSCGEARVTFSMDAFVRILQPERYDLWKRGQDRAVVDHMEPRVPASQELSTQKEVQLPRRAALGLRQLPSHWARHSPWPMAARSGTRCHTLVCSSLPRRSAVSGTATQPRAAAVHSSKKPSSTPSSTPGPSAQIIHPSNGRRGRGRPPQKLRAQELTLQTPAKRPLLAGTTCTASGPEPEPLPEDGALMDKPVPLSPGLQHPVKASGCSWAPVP
The target in a further assay is KDM5A (Jarid1A) (Homo sapiens, UniProt P29375). The assay is described as follows: KDM cell-free assay (AlphaScreen, BPS Bioscience).
For another assay, the target named is KDM5C (Jarid1C) (Homo sapiens, UniProt P41229). Briefly: KDM cell-free assay (AlphaScreen, BPS Bioscience).
A further assay addresses KDM3B (JMJD1B) (Homo sapiens, UniProt Q7LBC6). The assay is described as follows: KDM cell-free assay (AlphaScreen, BPS Bioscience).
The target of a further assay is T2, KDM6A (UTX) (Homo sapiens, UniProt O15550).
T2 construct: purchased BPS Bioscience
T2 sequence (O15550 whole entry): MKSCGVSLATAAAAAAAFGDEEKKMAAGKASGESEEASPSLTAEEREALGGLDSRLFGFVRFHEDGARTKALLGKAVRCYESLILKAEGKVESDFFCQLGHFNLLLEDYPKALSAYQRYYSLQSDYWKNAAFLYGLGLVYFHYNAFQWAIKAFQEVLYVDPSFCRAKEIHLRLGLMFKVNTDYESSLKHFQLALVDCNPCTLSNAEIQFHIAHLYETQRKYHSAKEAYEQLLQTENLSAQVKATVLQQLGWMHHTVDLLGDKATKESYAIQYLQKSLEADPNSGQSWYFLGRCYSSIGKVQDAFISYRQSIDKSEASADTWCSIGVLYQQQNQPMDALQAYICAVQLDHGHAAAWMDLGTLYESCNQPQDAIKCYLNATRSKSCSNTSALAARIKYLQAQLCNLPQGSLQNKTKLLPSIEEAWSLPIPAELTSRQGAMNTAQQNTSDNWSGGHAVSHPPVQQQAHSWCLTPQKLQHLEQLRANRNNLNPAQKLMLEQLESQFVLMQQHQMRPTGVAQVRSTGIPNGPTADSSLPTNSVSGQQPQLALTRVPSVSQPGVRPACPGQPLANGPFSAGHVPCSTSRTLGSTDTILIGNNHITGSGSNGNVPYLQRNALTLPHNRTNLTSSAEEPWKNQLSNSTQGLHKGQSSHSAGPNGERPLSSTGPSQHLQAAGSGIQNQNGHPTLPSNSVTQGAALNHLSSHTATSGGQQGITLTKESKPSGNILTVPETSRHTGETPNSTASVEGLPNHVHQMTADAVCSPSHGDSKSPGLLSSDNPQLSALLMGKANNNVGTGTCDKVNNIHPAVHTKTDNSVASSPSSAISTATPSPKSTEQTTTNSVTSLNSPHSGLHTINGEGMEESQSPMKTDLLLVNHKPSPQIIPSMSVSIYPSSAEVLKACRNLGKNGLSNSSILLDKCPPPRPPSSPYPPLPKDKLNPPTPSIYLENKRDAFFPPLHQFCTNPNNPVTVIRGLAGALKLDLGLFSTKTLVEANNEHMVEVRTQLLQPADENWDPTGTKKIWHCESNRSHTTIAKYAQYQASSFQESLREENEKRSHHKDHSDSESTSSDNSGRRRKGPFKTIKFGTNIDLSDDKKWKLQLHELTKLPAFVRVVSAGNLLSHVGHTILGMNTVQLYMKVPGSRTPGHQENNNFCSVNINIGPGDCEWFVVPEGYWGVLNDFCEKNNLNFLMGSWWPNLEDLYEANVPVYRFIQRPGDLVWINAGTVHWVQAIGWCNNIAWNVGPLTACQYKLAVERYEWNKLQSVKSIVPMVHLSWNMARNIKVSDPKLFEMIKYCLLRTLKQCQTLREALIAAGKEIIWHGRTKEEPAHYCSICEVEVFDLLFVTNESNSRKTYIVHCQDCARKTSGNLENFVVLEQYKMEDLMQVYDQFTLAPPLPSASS
Briefly: KDM cell-free assay (AlphaScreen, BPS Bioscience). To be noted: recombinant human KDM6A (UTX); read-out: IC50. The assay is classed as biochemical.

For a further assay, the target named is KDM3A (JMJD1A) (Homo sapiens, UniProt Q9Y4C1). The assay is described as follows: KDM cell-free assay (AlphaScreen, BPS Bioscience).
The target of another assay is KDM1A (LSD1) (Homo sapiens, UniProt O60341). Briefly: KDM cell-free assay (AlphaScreen, BPS Bioscience).

Chain of KDM3B (JMJD1B) (Q7LBC6 whole entry): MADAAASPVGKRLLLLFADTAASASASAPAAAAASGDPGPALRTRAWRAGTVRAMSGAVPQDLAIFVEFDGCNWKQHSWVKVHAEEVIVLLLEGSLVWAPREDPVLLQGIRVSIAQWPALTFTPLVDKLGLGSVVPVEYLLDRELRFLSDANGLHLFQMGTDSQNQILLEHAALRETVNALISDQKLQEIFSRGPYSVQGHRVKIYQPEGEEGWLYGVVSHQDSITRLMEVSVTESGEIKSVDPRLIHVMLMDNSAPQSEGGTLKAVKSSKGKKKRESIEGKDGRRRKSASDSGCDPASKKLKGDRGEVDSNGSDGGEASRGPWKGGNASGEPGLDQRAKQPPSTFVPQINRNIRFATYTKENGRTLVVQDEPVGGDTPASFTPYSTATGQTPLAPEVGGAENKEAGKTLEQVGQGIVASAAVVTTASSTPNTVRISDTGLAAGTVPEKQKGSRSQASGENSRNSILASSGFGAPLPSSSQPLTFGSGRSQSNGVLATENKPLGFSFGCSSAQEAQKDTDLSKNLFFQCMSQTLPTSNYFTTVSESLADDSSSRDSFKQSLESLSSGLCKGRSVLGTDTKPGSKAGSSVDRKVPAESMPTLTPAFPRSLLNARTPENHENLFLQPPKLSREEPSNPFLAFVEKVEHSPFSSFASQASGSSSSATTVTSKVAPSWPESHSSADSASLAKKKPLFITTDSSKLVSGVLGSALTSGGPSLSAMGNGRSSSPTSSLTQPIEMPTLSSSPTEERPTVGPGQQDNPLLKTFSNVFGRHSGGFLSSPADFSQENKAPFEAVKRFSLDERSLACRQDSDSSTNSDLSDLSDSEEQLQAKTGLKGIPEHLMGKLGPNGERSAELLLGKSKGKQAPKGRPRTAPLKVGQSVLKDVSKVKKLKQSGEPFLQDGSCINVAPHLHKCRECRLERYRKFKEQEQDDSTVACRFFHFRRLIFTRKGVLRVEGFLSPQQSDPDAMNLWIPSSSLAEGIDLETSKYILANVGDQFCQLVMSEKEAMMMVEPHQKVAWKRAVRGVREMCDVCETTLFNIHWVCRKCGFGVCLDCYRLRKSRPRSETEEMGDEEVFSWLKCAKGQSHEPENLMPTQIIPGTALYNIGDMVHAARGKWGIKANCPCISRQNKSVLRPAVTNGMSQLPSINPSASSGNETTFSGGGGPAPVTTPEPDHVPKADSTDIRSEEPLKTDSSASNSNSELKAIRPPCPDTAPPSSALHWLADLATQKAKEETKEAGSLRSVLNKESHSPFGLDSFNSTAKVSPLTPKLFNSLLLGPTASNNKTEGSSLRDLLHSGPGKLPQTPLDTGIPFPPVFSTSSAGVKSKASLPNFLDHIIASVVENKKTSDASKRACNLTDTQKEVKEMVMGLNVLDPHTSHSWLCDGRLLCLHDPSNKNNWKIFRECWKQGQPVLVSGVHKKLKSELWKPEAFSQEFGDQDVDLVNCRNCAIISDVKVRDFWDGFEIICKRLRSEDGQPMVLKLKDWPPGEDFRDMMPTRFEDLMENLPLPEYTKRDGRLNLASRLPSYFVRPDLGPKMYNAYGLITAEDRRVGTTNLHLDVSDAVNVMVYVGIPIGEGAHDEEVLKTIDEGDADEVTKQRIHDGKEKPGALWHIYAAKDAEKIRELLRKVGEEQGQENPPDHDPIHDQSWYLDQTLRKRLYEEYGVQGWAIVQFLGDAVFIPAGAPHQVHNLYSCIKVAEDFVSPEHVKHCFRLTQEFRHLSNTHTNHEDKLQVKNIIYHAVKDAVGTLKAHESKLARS

On to `Cc1c(O)c(=O)ccn1C` [DFP, Deferiprone], for which the IC50 on KDM6B (JMJD3), on KDM4A (JMJD2A), against KDM4B (JMJD2B), against KDM4C (JMJD2C), against KDM4E (JMJD2E) and against KDM4D (JMJD2D) was over 25 µM each time. Moreover, the IC50 was over 25 µM against KDM5A (Jarid1A); 5.6 µM at KDM5C (Jarid1C); over 25 µM against KDM3B (JMJD1B); 4.2 µM at KDM6A (UTX); over 25 µM at KDM3A (JMJD1A); over 25 µM against KDM1A (LSD1). The “inhibition of heterochromatin formation” value in [1] was “did not inhibit heterochromatin formation”.

These data come from PMC6423038, “Deferiprone: Pan-selective Histone Lysine Demethylase Inhibition Activity and Structure Activity Relationship Study” (Scientific Reports, 2019).
